One assay has as its target human V2 Tango receptor (Homo sapiens, UniProt P30518). The assay is described as follows: Tango control, human V2 Tango receptor. It counts as cell-based. The note with it: data not shown.
Assay [1] relates to HTLA cells not expressing a Tango receptor. The assay is described as follows: Tango negative control, cells transfected with pEYFP-N1. It counts as cell-based, human.

With `CN(C)CCCN1c2ccccc2Sc2ccc(Cl)cc21` [Chlorpromazine], at human V2 Tango receptor, the “effect on HTLA cells expressing the human V2 Tango receptor” value was “no effect”. For the same compound, the “activity on HTLA cells not expressing a Tango receptor” value in assay [1] was “inactive”.

For `CCCN1CCC[C@@H]2Cc3n[nH]cc3C[C@H]21` [Quinpirole], the “effect on HTLA cells expressing the human V2 Tango receptor” value at human V2 Tango receptor was “no effect”. The “activity on HTLA cells not expressing a Tango receptor” value in assay [1] is “inactive”.
